pIC50: −log10 of the molar value.
Legend:
Format in all cases: biochemical
[1] = target: T1, Lck (Homo sapiens, UniProt P06239); test: Kinase inhibition assay (33P transfer), Lck; details: Table 3; read-out: Lck-1
T1 construct: Kinases are expressed as either kinase domains or full length constructs; made in house
How it was run: (§1)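 Radiometric readout: 33P incorporated into surface-bound poly(Glu,Tyr) 4:1 or poly(Arg,Ser) 3:1 is counted by liquid scintillation after a 0.5% phosphoric acid wash. Enzymes were GST or polyHis fusions (kinase domain or full length) from E. coli or High Five insect cells.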

[2] = target: T2, Lyn (Homo sapiens, UniProt P07948); test: Kinase inhibition assay (33P transfer), Lyn; details: Table 6, Lyn-1 kinase inhibition class
T2 construct: Kinases are expressed as either kinase domains or full length constructs; made in house
Excerpt: (§2) The inhibitor compounds described herein are screened in the following manner. Kinases suitable for use in the following protocol to determine kinase activity of the compounds described herein include, -but are not limited to: Lck, Lyn, Src, Fyn, Syk, Zap-70, Itk, Tec, Btk, EGFR, ErbB2, Kdr, Flt-1, Flt-3, Tek, c-Met, InsR, and AKT.
(§3) Kinases are expressed as either kinase domains or full length constructs fused to glutathione S-transferase (GST) or polyHistidine tagged fusion proteins in either E. colior Baculovirus-High Five expression systems. They are purified to near homogeneity by affinity chromatography essentially as previously described (Lehr et al., 1996; Gish et al., 1995). In some instances, kinases are co-expressed or mixed with purified or partially purified regulatory polypeptides prior to measurement of activity.
(§4) Kinase activity and inhibition are measured essentially by established protocols (Braunwalder et al., 1996). Briefly, The transfer of ^33PO4 from ATP to the synthetic substrates poly(Glu, Tyr) 4:1 or poly(Arg, Ser) 3:1 attached to the bioactive surface of microtiter plates serves as the basis to evaluate enzyme activity. After an incubation period, the amount of phosphate transferred is measured by first washing the plate with 0.5% phosphoric acid, adding liquid scintillant, and then counting in a liquid scintillation detector. The IC50 is determined by the concentration of compound that causes a 50% reduction in the amount of […] incorporated onto the substrate bound to the plate.

[3] = target: T3, Src (Homo sapiens, UniProt P12931); test: Kinase inhibition assay (33P transfer), Src; details: Table 6, Src-1 kinase inhibition class
T3 construct: Kinases are expressed as either kinase domains or full length constructs; made in house
Excerpt: as §2, §3, §4

[4] = target: T4, Fyn (Homo sapiens, UniProt P06241); test: Kinase inhibition assay (33P transfer), Fyn; details: read-out: Fyn-1
T4 construct: Kinases are expressed as either kinase domains or full length constructs; made in house
Excerpt: as §2, §3, §4

[5] = target: T5, Zap-70 (Homo sapiens, UniProt P43403); test: Kinase inhibition assay (33P transfer), Zap-70; details: Table 3; read-out: Zap-1
T5 construct: Kinases are expressed as either kinase domains or full length constructs; made in house
T5 sequence (P43403 1-619): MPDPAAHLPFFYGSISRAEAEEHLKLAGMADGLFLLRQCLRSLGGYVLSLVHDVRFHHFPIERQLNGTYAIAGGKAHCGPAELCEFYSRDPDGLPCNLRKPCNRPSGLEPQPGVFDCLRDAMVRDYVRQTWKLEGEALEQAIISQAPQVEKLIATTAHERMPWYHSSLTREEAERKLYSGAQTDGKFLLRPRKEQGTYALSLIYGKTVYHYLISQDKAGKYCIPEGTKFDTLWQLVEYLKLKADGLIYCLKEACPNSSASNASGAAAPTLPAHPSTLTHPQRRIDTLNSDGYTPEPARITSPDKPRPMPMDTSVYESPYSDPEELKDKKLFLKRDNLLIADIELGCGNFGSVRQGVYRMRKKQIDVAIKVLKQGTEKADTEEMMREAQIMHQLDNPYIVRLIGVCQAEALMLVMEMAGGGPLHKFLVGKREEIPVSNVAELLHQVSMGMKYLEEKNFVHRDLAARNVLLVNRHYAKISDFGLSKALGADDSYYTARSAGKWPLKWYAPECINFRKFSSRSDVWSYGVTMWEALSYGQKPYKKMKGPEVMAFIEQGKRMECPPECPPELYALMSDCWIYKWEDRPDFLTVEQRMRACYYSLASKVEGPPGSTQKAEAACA
How it was run: as §1

[6] = target: T6, Itk (Homo sapiens, UniProt Q08881); test: Kinase inhibition assay (33P transfer), Itk; details: Table 3; read-out: Itk-1
T6 construct: Kinases are expressed as either kinase domains or full length constructs; made in house
T6 sequence (Q08881 1-620): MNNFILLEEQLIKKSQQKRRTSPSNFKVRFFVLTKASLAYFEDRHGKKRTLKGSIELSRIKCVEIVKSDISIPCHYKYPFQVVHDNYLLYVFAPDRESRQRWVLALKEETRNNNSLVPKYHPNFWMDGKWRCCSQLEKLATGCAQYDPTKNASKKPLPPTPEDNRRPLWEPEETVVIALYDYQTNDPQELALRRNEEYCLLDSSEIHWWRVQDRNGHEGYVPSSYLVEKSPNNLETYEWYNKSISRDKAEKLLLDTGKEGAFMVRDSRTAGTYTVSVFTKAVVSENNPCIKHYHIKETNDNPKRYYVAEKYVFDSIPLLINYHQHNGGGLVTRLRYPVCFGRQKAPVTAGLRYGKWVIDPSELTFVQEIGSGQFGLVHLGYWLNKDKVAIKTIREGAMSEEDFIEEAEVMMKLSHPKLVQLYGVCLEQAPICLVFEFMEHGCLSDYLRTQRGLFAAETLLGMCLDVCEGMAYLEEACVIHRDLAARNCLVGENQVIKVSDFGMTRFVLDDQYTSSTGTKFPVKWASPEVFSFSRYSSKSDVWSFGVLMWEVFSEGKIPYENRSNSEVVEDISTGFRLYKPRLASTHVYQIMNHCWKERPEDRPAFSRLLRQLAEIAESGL
How it was run: (§5)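 GST/His-fusion kinases, E. coli or High Five expressed, affinity purified; 33P-ATP, plate-coated poly(Glu,Tyr) 4:1 or poly(Arg,Ser) 3:1; 0.5% H3PO4 wash, scintillant, LSC.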

[7] = target: T7, EGFR (Homo sapiens, UniProt P00533); test: Kinase inhibition assay (33P transfer), EGFR; details: Table 2, kinase inhibition class; read-out: EGFR-1
T7 construct: Kinases are expressed as either kinase domains or full length constructs; made in house
How it was run: as §5

[8] = target: T8, Kdr (Homo sapiens, UniProt P35968); test: Kinase inhibition assay (33P transfer), Kdr; details: Table 3; read-out: KDR-1
T8 construct: Kinases are expressed as either kinase domains or full length constructs; made in house
How it was run: as §1

[9] = target: T9, Flt-1 (Homo sapiens, UniProt P17948); test: Kinase inhibition assay (33P transfer), Flt-1
T9 construct: Kinases are expressed as either kinase domains or full length constructs; made in house
Excerpt: as §2, §3, §4

[10] = target: T10, Tek (Homo sapiens, UniProt Q02763); test: Kinase inhibition assay (33P transfer), Tek; details: read-out: Tek-1
T10 construct: Kinases are expressed as either kinase domains or full length constructs; made in house
How it was run: as §5

[11] = target: T11, c-Met (Homo sapiens, UniProt P08581); test: Kinase inhibition assay (33P transfer), c-Met; details: Table 2, kinase inhibition class; read-out: Met-1
T11 construct: Kinases are expressed as either kinase domains or full length constructs; made in house
How it was run: as §5

[12] = target: T12, AKT (Homo sapiens, UniProt Q9Y243); test: Kinase inhibition assay (33P transfer), AKT; details: Table 2, kinase inhibition class; read-out: AKT3-1
T12 construct: Kinases are expressed as either kinase domains or full length constructs; made in house
How it was run: as §1

[13] = target: T13, PDGFRB (Homo sapiens, UniProt P09619); test: Kinase inhibition assay (33P transfer), PDGFRB; details: read-out: PDGFRB-1
T13 construct: Kinases are expressed as either kinase domains or full length constructs; made in house

[14] = target: T14, Hck-1 (Homo sapiens, UniProt P08631); test: Kinase inhibition assay (33P transfer), Hck; details: Table 6, Hck-1 kinase inhibition class
T14 construct: Kinases are expressed as either kinase domains or full length constructs; made in house

[15] = target: T15, ErbB4 (Homo sapiens, UniProt Q15303); test: Kinase inhibition assay (33P transfer), ErbB4; details: read-out: ErbB4-1
T15 construct: Kinases are expressed as either kinase domains or full length constructs; made in house

[16] = target: T16, FGFR1 (Homo sapiens, UniProt P11362); test: Kinase inhibition assay (33P transfer), FGFR1; details: read-out: FGFR1-1
T16 construct: Kinases are expressed as either kinase domains or full length constructs; made in house
T16 sequence (P11362 22-822, species assumed): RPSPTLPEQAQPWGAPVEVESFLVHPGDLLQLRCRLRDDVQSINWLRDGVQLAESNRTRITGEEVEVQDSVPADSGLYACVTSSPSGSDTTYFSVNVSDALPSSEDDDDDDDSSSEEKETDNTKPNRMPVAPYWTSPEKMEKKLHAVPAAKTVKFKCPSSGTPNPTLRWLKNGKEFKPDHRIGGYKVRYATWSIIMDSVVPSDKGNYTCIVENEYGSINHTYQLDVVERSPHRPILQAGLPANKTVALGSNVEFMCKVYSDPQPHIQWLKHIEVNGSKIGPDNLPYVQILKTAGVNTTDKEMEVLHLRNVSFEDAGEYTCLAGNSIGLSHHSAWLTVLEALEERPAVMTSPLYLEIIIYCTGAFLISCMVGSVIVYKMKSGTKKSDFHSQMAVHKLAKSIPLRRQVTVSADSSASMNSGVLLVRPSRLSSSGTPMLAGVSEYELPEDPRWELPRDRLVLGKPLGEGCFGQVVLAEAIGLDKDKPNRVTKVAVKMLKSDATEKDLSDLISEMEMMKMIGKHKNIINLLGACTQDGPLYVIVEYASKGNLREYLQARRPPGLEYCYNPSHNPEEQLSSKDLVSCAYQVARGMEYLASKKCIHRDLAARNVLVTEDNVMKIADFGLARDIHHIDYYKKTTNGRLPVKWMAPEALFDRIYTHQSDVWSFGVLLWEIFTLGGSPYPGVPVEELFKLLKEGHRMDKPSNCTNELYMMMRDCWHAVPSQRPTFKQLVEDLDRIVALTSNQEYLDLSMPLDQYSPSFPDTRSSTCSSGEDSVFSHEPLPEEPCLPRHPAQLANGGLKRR

T4 sequence (P06241 whole entry, species assumed, the tested form may be a part): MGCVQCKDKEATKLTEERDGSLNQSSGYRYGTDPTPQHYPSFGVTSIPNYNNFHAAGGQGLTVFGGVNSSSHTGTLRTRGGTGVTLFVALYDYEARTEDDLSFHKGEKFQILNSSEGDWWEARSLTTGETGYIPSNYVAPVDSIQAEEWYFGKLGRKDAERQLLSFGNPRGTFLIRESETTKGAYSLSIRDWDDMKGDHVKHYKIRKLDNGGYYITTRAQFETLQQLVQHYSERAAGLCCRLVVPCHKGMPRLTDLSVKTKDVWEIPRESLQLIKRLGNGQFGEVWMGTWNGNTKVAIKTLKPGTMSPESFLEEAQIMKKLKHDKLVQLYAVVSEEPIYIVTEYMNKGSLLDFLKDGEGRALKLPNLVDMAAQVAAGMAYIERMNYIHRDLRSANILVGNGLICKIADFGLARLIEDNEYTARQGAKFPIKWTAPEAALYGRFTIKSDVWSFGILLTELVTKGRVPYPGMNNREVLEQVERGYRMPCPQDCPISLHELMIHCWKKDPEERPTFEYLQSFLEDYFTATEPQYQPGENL
T9 sequence (P17948 27-1338, species assumed): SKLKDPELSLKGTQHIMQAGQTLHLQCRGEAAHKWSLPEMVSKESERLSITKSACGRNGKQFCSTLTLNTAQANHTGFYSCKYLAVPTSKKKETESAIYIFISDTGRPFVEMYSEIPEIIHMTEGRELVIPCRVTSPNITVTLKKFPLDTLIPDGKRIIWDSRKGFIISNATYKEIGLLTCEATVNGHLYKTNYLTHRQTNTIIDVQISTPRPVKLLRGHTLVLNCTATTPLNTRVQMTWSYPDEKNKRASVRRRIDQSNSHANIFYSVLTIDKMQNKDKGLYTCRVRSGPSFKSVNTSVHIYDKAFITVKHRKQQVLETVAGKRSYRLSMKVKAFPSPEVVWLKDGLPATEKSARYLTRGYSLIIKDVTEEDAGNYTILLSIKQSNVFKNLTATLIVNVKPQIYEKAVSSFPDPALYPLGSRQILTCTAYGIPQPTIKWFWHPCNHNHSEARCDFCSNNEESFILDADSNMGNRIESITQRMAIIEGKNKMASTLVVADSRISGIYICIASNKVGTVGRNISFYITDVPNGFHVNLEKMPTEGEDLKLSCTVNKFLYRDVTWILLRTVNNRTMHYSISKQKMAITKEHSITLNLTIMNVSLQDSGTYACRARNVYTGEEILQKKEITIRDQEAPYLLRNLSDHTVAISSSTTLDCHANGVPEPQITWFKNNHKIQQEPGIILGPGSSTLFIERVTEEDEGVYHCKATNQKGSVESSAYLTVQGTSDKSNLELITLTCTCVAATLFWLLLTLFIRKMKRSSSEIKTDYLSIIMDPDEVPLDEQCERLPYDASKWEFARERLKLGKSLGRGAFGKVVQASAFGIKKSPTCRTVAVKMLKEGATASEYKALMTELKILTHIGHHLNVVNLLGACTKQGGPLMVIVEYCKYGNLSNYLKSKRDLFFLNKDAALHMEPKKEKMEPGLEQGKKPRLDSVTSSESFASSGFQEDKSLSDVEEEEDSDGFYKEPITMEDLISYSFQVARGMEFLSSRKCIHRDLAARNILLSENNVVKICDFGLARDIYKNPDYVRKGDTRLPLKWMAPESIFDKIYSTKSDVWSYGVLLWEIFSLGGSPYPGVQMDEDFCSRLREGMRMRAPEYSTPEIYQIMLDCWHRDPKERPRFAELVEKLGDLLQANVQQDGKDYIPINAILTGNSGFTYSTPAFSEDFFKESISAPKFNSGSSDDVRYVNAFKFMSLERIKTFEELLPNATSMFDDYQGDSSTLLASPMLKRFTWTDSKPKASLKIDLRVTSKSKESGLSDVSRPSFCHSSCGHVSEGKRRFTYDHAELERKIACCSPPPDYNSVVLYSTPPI
T2 sequence (P07948 whole entry, species assumed, the tested form may be a part): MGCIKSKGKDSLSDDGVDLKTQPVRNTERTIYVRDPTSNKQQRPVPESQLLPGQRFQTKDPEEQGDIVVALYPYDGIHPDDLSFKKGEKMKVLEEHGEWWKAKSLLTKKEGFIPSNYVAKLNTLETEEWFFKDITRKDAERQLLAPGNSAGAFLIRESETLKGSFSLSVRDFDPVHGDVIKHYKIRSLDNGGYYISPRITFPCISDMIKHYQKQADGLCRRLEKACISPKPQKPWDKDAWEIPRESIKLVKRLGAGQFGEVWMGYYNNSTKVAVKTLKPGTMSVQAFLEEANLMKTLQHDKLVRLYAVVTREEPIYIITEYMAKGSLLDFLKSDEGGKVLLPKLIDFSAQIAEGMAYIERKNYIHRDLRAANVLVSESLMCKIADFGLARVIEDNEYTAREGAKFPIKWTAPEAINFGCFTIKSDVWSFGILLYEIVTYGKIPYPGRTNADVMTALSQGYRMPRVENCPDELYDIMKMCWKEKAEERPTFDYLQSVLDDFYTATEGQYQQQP
T14 sequence (P08631 whole entry, the tested form may be a part): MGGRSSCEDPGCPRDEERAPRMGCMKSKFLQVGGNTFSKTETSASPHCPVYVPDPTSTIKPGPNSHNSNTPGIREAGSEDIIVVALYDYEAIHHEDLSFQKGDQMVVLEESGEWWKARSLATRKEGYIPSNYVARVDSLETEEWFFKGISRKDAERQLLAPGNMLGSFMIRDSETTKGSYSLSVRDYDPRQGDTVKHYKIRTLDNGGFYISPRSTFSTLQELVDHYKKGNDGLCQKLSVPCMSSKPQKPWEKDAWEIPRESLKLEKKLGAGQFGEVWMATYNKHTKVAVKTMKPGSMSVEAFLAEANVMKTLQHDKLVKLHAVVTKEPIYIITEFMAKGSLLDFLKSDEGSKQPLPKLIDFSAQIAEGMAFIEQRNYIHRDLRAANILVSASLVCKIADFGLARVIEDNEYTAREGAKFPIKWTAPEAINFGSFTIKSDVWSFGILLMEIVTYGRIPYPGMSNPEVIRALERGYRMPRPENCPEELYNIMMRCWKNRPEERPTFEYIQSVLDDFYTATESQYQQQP
T8 sequence (P35968 20-1356, species assumed): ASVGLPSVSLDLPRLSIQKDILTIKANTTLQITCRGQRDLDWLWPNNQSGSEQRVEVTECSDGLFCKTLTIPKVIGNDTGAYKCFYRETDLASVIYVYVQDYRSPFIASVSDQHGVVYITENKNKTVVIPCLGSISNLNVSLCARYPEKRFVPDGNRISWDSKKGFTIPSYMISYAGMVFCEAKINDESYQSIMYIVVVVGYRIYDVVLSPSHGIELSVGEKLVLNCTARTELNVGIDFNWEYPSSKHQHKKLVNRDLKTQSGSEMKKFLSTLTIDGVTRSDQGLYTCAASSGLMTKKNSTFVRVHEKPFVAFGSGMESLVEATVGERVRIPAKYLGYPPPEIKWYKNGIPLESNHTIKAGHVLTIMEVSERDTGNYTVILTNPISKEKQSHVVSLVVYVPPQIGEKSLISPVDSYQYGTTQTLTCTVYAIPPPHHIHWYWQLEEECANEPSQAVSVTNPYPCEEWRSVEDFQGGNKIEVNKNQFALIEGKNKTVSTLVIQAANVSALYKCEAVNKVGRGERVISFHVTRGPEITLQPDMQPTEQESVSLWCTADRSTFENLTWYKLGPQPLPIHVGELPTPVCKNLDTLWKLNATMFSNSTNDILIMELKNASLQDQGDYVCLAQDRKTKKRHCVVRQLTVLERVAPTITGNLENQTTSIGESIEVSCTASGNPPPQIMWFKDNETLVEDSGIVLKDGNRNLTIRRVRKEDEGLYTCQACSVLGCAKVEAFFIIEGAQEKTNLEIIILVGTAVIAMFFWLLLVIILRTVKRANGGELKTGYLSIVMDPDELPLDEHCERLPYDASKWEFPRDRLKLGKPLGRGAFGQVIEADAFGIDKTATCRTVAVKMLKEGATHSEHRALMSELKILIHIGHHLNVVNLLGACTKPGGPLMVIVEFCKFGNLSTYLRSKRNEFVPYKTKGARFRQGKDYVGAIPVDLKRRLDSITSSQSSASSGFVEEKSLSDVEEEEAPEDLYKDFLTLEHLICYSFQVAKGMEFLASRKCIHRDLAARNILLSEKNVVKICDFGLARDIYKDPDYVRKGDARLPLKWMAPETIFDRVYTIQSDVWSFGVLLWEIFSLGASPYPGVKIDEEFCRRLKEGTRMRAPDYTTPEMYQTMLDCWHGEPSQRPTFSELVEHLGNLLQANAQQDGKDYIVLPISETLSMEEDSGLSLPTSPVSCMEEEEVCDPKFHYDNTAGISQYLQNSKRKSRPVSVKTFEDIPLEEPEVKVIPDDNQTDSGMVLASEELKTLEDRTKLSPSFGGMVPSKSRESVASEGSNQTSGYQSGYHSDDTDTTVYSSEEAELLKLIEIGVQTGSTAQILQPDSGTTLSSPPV

Row | SMILES | pIC50 [1] | pIC50 [2] | pIC50 [3] | pIC50 [4] | pIC50 [5] | pIC50 [6] | pIC50 [7] | pIC50 [8] | pIC50 [9] | pIC50 [10] | pIC50 [11] | pIC50 [12] | pIC50 [13] | pIC50 [14] | pIC50 [15] | pIC50 [16]
1 | COc1cc(Nc2ncnc(-n3c(Nc4ccc5[nH]ncc5c4)nc4ccccc43)n2)cc(OC)c1OC [Compound 404] | 5.33 to 6.11 | 5.33 to 6.11 | 5.16 to 5.33 | 5.33 to 6.11 | < 5.05 | 5.33 to 6.11 | 5.05 to 5.16 | > 6.11 | > 6.11 | < 5.05 | < 5.05 | 5.05 to 5.16 | > 6.11 | 5.05 to 5.16 | < 5.05 | > 6.11
2 | COc1cc(Nc2ncnc(-n3c(NCC(C)C)nc4ccccc43)n2)cc(OC)c1OC [Compound 407] | > 6.05 | > 6.05 | > 6.05 | > 6.05 | < 5.00 | < 5.00 | < 5.00 | > 6.05 | > 6.05 | < 5.00 | < 5.00 | < 5.00 | > 6.05 | < 5.00 | < 5.00 | > 6.05
3 | C=CCNc1cc(-c2ncnc(Nc3cc(OC)c(OC)c(OC)c3)n2)ccn1 [Compound 412] | > 5.99 | > 5.99 | < 4.94 | < 4.94 | < 4.94 | < 4.94 | < 4.94 | 5.22 to 5.99 | < 4.94 | < 4.94 | < 4.94 | < 4.94 | 5.05 to 5.22 | < 4.94 | < 4.94 | < 4.94
4 | COc1ccc(Nc2nc3ccccc3n2-c2ncnc(Nc3cc(OC)c(OC)c(OC)c3)n2)cc1OC [Compound 400] | < 5.07 | < 5.07 | < 5.07 | < 5.07 | < 5.07 | < 5.07 | < 5.07 | > 6.12 | 5.34 to 6.12 | < 5.07 | < 5.07 | < 5.07 | < 5.07 | < 5.07 | < 5.07 | < 5.07
5 | OCc1ccc(Nc2ncnc(Nc3cc(-c4ccco4)n[nH]3)n2)cc1 [Compound 430] | 5.16 to 5.94 | 5.16 to 5.94 | 5.16 to 5.94 | 5.16 to 5.94 | < 4.89 | 5.16 to 5.94 | 5.16 to 5.94 | > 5.94 | 5.16 to 5.94 | 5.16 to 5.94 | 5.16 to 5.94 | 5.16 to 5.94 | 5.16 to 5.94 | < 4.89 | 5.16 to 5.94 | > 5.94

Reference: patent US7074789B2, “Kinase inhibitors” (Amgen Inc., priority 1999, dated 2006)
